Test system: hES cells
Assay: Embryoid body (EB) and hemangioblast formation from hESC cultured with BIO
Assay type: cell-based, human
Description: Four hESC cell lines were used: H9 (derived from WiCell Research Institute) (Thomson et al. (1998)); CT2 (derived from University of Connecticut Stem Cell Core (Lin et al. (2010)); MA09 (an FDA approved, clinical-grade cell line derived at Advanced Cell Technology, Inc.) (Klimanskaya et al. (2006)); and ES03-Envy (Envy, a GFP-labeled line, derived at ES International) (Costa et al. (2005)). These cell lines were cultured on Matrigel (BD Biosciences, San Jose, Calif.) and cultured in TeSR1 medium, (Stem Cell Technologies, Vancouver, Canada), with or without adding of 0.05-0.2 μM of BIO (6-Bromoindirubin-3′-oxime (CAS 667463-62-9)).
hESC cells were then differentiated into EB cells and then enriched for HB as previously described (Lu et al. (2008); Lu et al. (2007)). 50-80% confluent hEs cell on the Matrigel plate were digested with Dispase (1 mg/ml for 5 to 10 minutes) and then washed with EB formation basal medium, HPGM (Lonza, Walksville, Md.), or STEMLINE I/II Hematopoietic Stell Cell Expansion Medium (Sigma, St. Louis, Mo.), or StemSpan H3000 (Stem Cell Technologies, Vancouver, Canada), or IMDM with 10% FBS, or DMEDM/F12 with 10% FBS. Cells were then cultured in EB formation medium supplemented with 50 ng/ml of VEGF (Peprotech) and 50 ng/ml of BMP4 (Stemgent) for 48 hours on ultra-low plate at a density of about 2-3 million cells/ml. After 48 hours, half the culture medium was replaced with fresh EB formation medium plus 25-50 ng/ml of bFGF.
Four days later, EB cells formed in the medium were harvested and dissociated into single cells with TrypLE (Invitrogen) at 37° C. for 2-3 minutes. Cells were washed and resuspended at 1-5 million cells/ml in EB formation basal medium. The single cell suspension were then mixed at 1:10 with Hemangioblast Growth Medium (Stem Cell Technologies, Vancouver, Canada). […]

## O=C1Nc2cc(Br)ccc2/C1=C1/Nc2ccccc2/C1=N\O [BIO, (2′Z,3′E)-6-Bromoindirubin-3′-oxime]
BIO in the mTesr1 medium
  size and yield of the EB culture: increase
  total EB number increase: 3 folds
BIO treatment compared to traditional mTesr1 medium
  percentage of CD45 cell differentiation (indicator of hemangioblast differentiation efficiency): tripled
